Marks after values point to notes of the source that are not given here. No end group written: not given here.
What was measured:
[1] = system: intracellular APEC O78 in HD11 cells; assay: Intracellular survival of APEC in HD11 cells (gentamicin protection assay); format: cell-based, chicken
Procedure: Effect of peptides on intracellular survival of APEC in HD11 cells: To determine the efficacy of peptides (P1, P2, and P3) against intracellular APEC, gentamicin protection assay was conducted in HD 11 (chicken macrophage) cells as described previously. The cells were cultured in Iscove's Modified Dulbecco's Media (IMDM) supplemented with 10% fetal bovine serum (FBS), 2 mM L-glutamine and 2% penicillin-streptomycin (P/S) solution and maintained at 37° C. incubator with 5% C02. Cells (approximately 10^4 cells/well) were seeded in a 96-well cell culture plate in 100 μL culture media and incubated for 36 h prior to using for the assay. Following incubation, the cells were replenished with 100 μL of fresh cell culture media with no FBS and antibiotic and incubated until infection (2 h). For the infection, the overnight grown APEC O78 was subcultured to mid-logarithmic phase, centrifuged, washed twice with PBS, adjusted to 1×10^7 CFU/mL. One-hundred microliters of the APEC suspension (MOI: 100) was added to each well of the 96-well plate and incubated for 1 h to allow the invasion. The cells were washed twice and treated with gentamicin (150 μg/mL) to kill the extracellular APEC. The cells were treated with peptides at 12 mM, 15 mM, and 18 mM concentrations. Infected but not treated, infected and DMSO-treated, and non-infected and not treated cells were used as controls. Three independent experiments were conducted.

cecal microbiota = assay: Cecal microbiome analysis (peptides, APEC infected); format: in vivo, chickens
Procedure: Cecal microbiome analysis: To investigate the impact of peptides (P1, P2, and P3) treatment (50 mg/kg and 100 mg/kg) on cecal microbiome of chickens, 16S rRNA based metagenomic study was conducted as previously described. DNA was extracted from 0.2 g of cecal contents using PureLink™ Microbiome DNA Purification Kit (Thermofisher Scientific) and treated with RNase A (2 μL of 100 mg/mL solution per sample; Qiagen) to remove the RNA. DNA quantity and quality were measured using NanoDrop 2000c Spectrophotometer (Thermo Fisher Scientific). The extracted DNA samples were subjected to 16S rRNA V4-V5 sequencing at molecular and cellular imaging center (MCIC), Ohio Agricultural Research and Development Center (OARDC) (mcic.osu.edu/genomics/illumina-sequencing). Amplicon libraries were prepared using IFU KAPA HiFi HotStart ReadyMixPCR Kit (Roche) and PCR clean-up was performed using Agencourt AMPure XP beads (BECKMAN COULTER Life Sciences). Nextera XT DNA Library Preparation Kit (Illumina) was used to generate Illumina library and sequencing was performed using Illumina MiSeq platform generating paired end 300-bp reads.
For the metagenomic analysis, QIIME (Quantitative Insights into Microbial Ecology) 2 bioinformatics platform (qiime2.org/) was used. Quality control of the raw reads was performed using FastQC 0.11.8 (Babraham Bioinformatics). Trimmomatic-0.33 was used to trim the adaptor and other illumina-specific sequences (www.usadellab.org/cms/?page=trimmomatic). The trimmed sequences (fastq.gz) were then imported into the QIIME 2 as a manifest file format (PairedEndManifestPhred33V2). The feature table construction and additional filtering of the sequences was performed using DADA2. The taxonomic analysis was performed using Naive Bayes classifiers trained on the Silva 132 99% OTUs (silva-132-99-nb-classifier.qza) database. The phylogenetic diversity was analyzed using align-to-tree-mafft-fasttree pipeline and alpha ([…]) were analyzed using core-metrics-phylogenetic pipeline (docs.qiime2.org/2019.7/tutorials/moving-pictures/). The statistical difference (P<0.05) in the taxonomic composition between the peptides treated, PC, and NC groups was determined using Mann-Whitney U test. The alpha and beta diversity were analyzed using Kruskal-Wallis and PERMANOVA tests (P<0.05), respectively.

APEC = system: APEC
Procedure: FIGS. 58A-58B show the APEC load after treatment 8 days dpi with LGG and 50 mg/mL of peptides in drinking water.

PDENK [Peptide P2, PDENK]
Intracellular APEC (log CFU/mL) ([1]; 12 mM, untreated 3.75 ± 0.10): 3.33 ± 0.03 log CFU/mL | Intracellular APEC (log CFU/mL) ([1]; 15 mM): No intracellular APEC was recovered | Intracellular APEC (log CFU/mL) ([1]; 15 mM, listed as P-2): 0.00 ± 0.00 log CFU/mL | Intracellular APEC (log CFU/mL) ([1]; 18 mM): 0.00 ± 0.00 log CFU/mL | Beta-diversity (weighted unifrac) vs NC chickens (cecal microbiota; 50 mg/kg): similar | Beta-diversity (weighted unifrac) vs NC chickens (cecal microbiota; 100 mg/kg): significantly (P<0.01) different | Relative abundance Clostridia (cecal microbiota; class, 100 mg/kg): 64.92% | Relative abundance Lachnospiraceae (cecal microbiota; family, 100 mg/kg): 56.10% | Relative abundance Lactobacillaceae (cecal microbiota; family, 100 mg/kg): 1.38% | Relative abundance Leuconostocaceae (cecal microbiota; family, 100 mg/kg, from 0.31%): 0% | Relative abundance Clostridiaceae 1 (cecal microbiota; family, 100 mg/kg, from 0.53%): 0% | Relative abundance (%) Anaerotruncus (cecal microbiota; genus, 50-mg/kg dose): 0.00% | Relative abundance (%) Bacteroides (cecal microbiota; genus, 50-mg/kg dose): 55.87% | Relative abundance (%) Clostridioides (cecal microbiota; genus, 50-mg/kg dose): 0.00% | Relative abundance (%) Clostridium sensu stricto 1 (cecal microbiota; genus, 50-mg/kg dose): 0.00% | Relative abundance (%) Enterococcus (cecal microbiota; genus, 50-mg/kg dose): 1.24% | Relative abundance (%) Erysipelatoclostridium (cecal microbiota; genus, 50-mg/kg dose): 3.84^a % | Relative abundance (%) Escherichia-Shigella (cecal microbiota; genus, 50-mg/kg dose): 4.95% | Relative abundance (%) Flavonifractor (cecal microbiota; genus, 50-mg/kg dose): 0.68% | Relative abundance (%) Lachnospiraceae (uncultured) (cecal microbiota; genus, 50-mg/kg dose): 2.30% | Relative abundance (%) Oscillibacter (cecal microbiota; genus, 50-mg/kg dose): 0.00% | Relative abundance (%) Pediococcus (cecal microbiota; genus, 50-mg/kg dose): 0.74% | Relative abundance (%) Ruminiclostridium 5 (cecal microbiota; genus, 50-mg/kg dose): 0.23% | Relative abundance (%) Ruminiclostridium 9 (cecal microbiota; genus, 50-mg/kg dose): 1.25% | Relative abundance (%) Ruminococcus gnavus group (cecal microbiota; genus, 50-mg/kg dose): 0.00% | Relative abundance (%) Ruminococcus torques group (cecal microbiota; genus, 50-mg/kg dose): 9.83% | Relative Abundance (%) Blautia (cecal microbiota; genus, 100-mg/kg dose): 0.00% | Relative Abundance (%) Caproiciproducens (cecal microbiota; genus, 100-mg/kg dose): 0.00% | Relative Abundance (%) Lactobacillus (cecal microbiota; genus, 100-mg/kg dose): 0.00% | Relative Abundance (%) Sellimonas (cecal microbiota; genus, 100-mg/kg dose): 0.00^b % | Relative Abundance (%) [Clostridium] innocuum group (cecal microbiota; genus, 100-mg/kg dose): 0.00^b % | Relative Abundance (%) [Eubacterium] coprostanoligenes group (cecal microbiota; genus, 100-mg/kg dose): 0.00% | Relative abundance (%) Anaerotruncus (cecal microbiota; genus, 100-mg/kg dose): 0.00% | Relative abundance (%) Bacillus (cecal microbiota; genus, 100-mg/kg dose): 0.37% | Relative abundance (%) Butyricicoccus (cecal microbiota; genus, 100-mg/kg dose): 1.53% | Relative abundance (%) Clostridiales vadin BB60 group (cecal microbiota; genus, 100-mg/kg dose): 0.00% | Relative abundance (%) Clostridioides (cecal microbiota; genus, 100-mg/kg dose): 0.00% | Relative abundance (%) Clostridium sensu stricto 1 (cecal microbiota; genus, 100-mg/kg dose): 0.00% | Relative abundance (%) Enterococcus (cecal microbiota; genus, 100-mg/kg dose): 2.01% | Relative abundance (%) Erysipelatoclostridium (cecal microbiota; genus, 100-mg/kg dose): 14.71^b % | Relative abundance (%) Escherichia-Shigella (cecal microbiota; genus, 100-mg/kg dose): 13.77% | Relative abundance (%) Flavonifractor (cecal microbiota; genus, 100-mg/kg dose): 0.68^b % | Relative abundance (%) Lachnospiraceae (uncultured) (cecal microbiota; genus, 100-mg/kg dose): 0.73% | Relative abundance (%) Lactococcus (cecal microbiota; genus, 100-mg/kg dose): 0.40% | Relative abundance (%) Oscillibacter (cecal microbiota; genus, 100-mg/kg dose): 0.13% | Relative abundance (%) Paenibacillus (cecal microbiota; genus, 100-mg/kg dose): 0.00% | Relative abundance (%) Pediococcus (cecal microbiota; genus, 100-mg/kg dose): 1.38^b % | Relative abundance (%) Ruminiclostridium 5 (cecal microbiota; genus, 100-mg/kg dose): 0.28% | Relative abundance (%) Ruminiclostridium 9 (cecal microbiota; genus, 100-mg/kg dose): 0.78% | Relative abundance (%) Ruminococcacede UCG-005 (cecal microbiota; genus, 100-mg/kg dose): 2.19% | Relative abundance (%) Ruminococcus torques group (cecal microbiota; genus, 100-mg/kg dose): 10.37% | Relative abundance (%) UBA1819 (cecal microbiota; genus, 100-mg/kg dose): 0.68% | Relative abundance (%) Weissella (cecal microbiota; genus, 100-mg/kg dose): 2.43^a % | Reduction of APEC colonization in ceca (APEC; LGG and 50 mg/mL of peptides in drinking water, 8 days dpi): 1.02 Log CFU/gm | Bodyweight (APEC; in vivo): no significant effect

Source: patent publication US20240181000A1, “LGG-DERIVED PEPTIDES AND METHODS OF USE THEREOF” (Ohio State Innovation Foundation, priority 2021, published 2024)
